Data reported in patent US11554182B2, “Macrocyclic complexes of alpha-emitting radionuclides and their use in targeted radiotherapy of cancer” (CORNELL UNIVERSITY, priority 2017, dated 2023).

What was measured:
[1] = Lu^3+ complex of macropa; cited from earlier work
[2] = Lu^3+ titration with macropa (UV, pH 7.4); assay type: physicochemical; settings: pH 7.4, MOPS buffer, RT
Protocol: (§1) La^3+ and Lu^3+ Titrations with Macropa. The pH of a 10 mM 3-(N-morpholino)propanesulfonic acid (MOPS) buffer was adjusted to 7.4 using aqueous NMe4OH. The ionic strength was set at 100 mM using NMe4Cl. Stock solutions of LaCl3.6.8H2O (40 mM) and LuCl3.6H2O (21 mM) were prepared in 1 mM HCl. A stock solution of H2macropa.2HCl.4H2O (8.8 mM) was prepared in MOPS buffer. From these stock solutions, titration solutions containing macropa (100 μM) and either LaCl3 or LuCl3 were prepared in MOPS. Each metal ion titration was carried out at RT by adding 5-10 μL aliquots of titrant to a cuvette containing 3000 μL of macropa (100 μM) in MOPS. Each sample was allowed to equilibrate for 5 min following every addition before a spectrum was acquired. Complexation of the metal ion was monitored by the decrease in absorbance at 268 nm, the λmax of macropa. Titrant was added until no further spectral changes were detected.

[3] = La^3+ titration with macropa (UV, pH 7.4); assay type: physicochemical; settings: pH 7.4, MOPS buffer, RT
Protocol: as §1

[4] = La^3+ complex of macropa; cited from earlier work

O=C(O)c1cccc(CN2CCOCCOCCN(Cc3cccc(C(=O)O)n3)CCOCCOCC2)n1 [macropa, N,N′-bis[(6-carboxy-2-pyridil)methyl]-4,13-diaza-18-crown-6]
stability constant log KLuL [1]: 8.25 | affinity of Lu^3+ for macropa by titration [2]: high affinity | affinity of La^3+ for macropa by titration [3]: high affinity | stability constant log KLaL [4]: 14.99
